Assay results published in US6706757B2, “Chroman derivatives as 5-hydroxytryptamine-6 ligands” (Wyeth, priority 2001, dated 2004).
pKi: −log10 of the molar value. Structures can show the parent of a compound that is named as a salt.

test system: not given; assay: not given; conditions: not given

melting point | Structure (SMILES)
199 to 201 °C | C[C@@H](NCC1CCc2ccc(N(C)S(=O)(=O)c3ccccc3Br)cc2O1)c1ccccc1 (stereo partly drawn) (as salt: HCl) [Example 51, 2-bromo-N-methyl-N-[2-({[(1R)-1-phenylethyl]amino}methyl)-3,4-dihydro-2H-chromen-7-yl]benzenesulfonamide]
208 to 210 °C | C[C@@H](NCC1CCc2ccc(N(C)S(=O)(=O)c3ccc(F)cc3)cc2O1)c1ccccc1 (stereo partly drawn) (as salt: HCl) [Example 52, 4-fluoro-N-methyl-N-[2-({[(1R)-1-phenylethyl]amino}methyl)-3,4-dihydro-2H-chromen-7-yl]benzenesulfonamide]
198 to 201 °C | C[C@@H](NCC1CCc2ccc(N(C)S(=O)(=O)c3ccc(Cl)cc3)cc2O1)c1ccccc1 (stereo partly drawn) (as salt: HCl) [Example 53, 4-chloro-N-methyl-N-[2-({[(1R)-1-phenylethyl]amino}methyl)-3,4-dihydro-2H-chromen-7-yl]benzenesulfonamide]
229 to 230 °C | COc1ccc(S(=O)(=O)N(C)c2ccc3c(c2)OC(CN[C@H](C)c2ccccc2)CC3)cc1OC (stereo partly drawn) (as salt: HCl) [Example 54, 3,4-dimethoxy-N-methyl-N-[2-({[(1R)-1-phenylethyl]amino}methyl)-3,4-dihydro-2H-chromen-7-yl]benzenesulfonamide]
245 to 246 °C | C[C@@H](NCC1CCc2ccc(N(C)S(=O)(=O)c3cccc4ccccc34)cc2O1)c1ccccc1 (stereo partly drawn) (as salt: HCl) [Example 55, N-methyl-N-[2-({[(1R)-1-phenylethyl]amino}methyl)-3,4-dihydro-2H-chromen-7-yl]naphthalene-1-sulfonamide]
200 °C (dec.) | C[C@@H](NCC1CCc2ccc(N(C)S(=O)(=O)c3ccc(N)cc3)cc2O1)c1ccccc1 (stereo partly drawn) (as salt: HCl) [Example 56, 4-amino-N-methyl-N-[2-({[(1R)-1-phenylethyl]amino}methyl)-3,4-dihydro-2H-chromen-7-yl]benzenesulfonamide]

target: T1, human cloned 5-HT6 receptors (Homo sapiens, UniProt P50406); assay: 5-HT6 binding affinity, [3H]-LSD displacement on membranes of Hela cells expressing human cloned 5-HT6 receptors; conditions: [3H]-LSD 3.0 nM, Hela cell membranes, 120 min at room temperature
T1 construct: expressed in transfected cells; host or cells: HeLa cells (membrane preparation)
Method: The affinity of test compounds for the serotonin 5-HT6 receptor is evaluated in the following manner. Cultured Hela cells expressing human cloned 5-HT6 receptors are harvested and centrifuged at low speed (1,000×g) for 10.0 min to remove the culture media. The harvested cells are suspended in half volume of fresh physiological phosphate buffered saline solution and recentrifuged at the same speed. This operation is repeated. The collected cells are then homogenized in ten volumes of 50 mM Tris.HCl (pH 7.4) and 0.5 mM EDTA. The homogenate is centrifuged at 40,000×g for 30.0 min and the precipitate is collected. The obtained pellet is resuspended in 10 volumes of Tris.HCl buffer and recentrifuged at the same speed. The final pellet is suspended in a small volume of Tris.HCl buffer and the tissue protein content is determined in aliquots of 10-25 μl volumes. Bovine Serum Albumin is used as the standard in the protein determination according to the method described in Lowry et al., J. Biol. Chem., 193:265 (1951). The volume of the suspended cell membranes is adjusted to give a tissue protein concentration of 1.0 mg/ml of suspension. The prepared membrane suspension (10 times concentrated) is aliquoted in 1.0 ml volumes and stored at −70° C. until used in subsequent binding experiments.
Binding experiments are performed in a 96 well microtiter plate format, in a total volume of 200 μl. […] The test compounds are added in 20.0 μl volume.
The reaction is allowed to proceed in the dark for 120 min at room temperature, at which time, the bound ligand-receptor complex is filtered off on a 96 well unifilter with a Packard Filtermate® 196 Harvester. The bound complex caught on the filter disk is allowed to air dry and the radioactivity is measured in a Packard TopCount® equipped with six photomultiplier detectors, after the addition of 40.0 μl Microscint®-20 scintillant to each shallow well. The unifilter plate is heat-sealed and counted in a PackardTopCount® with a tritium efficiency of 31.0%.
Binding in the presence of varying concentrations of test compound is expressed as a percentage of specific binding in the absence of test compound. The results are plotted as log % bound versus log concentration of test compound. […] A linear regression line of data points is plotted, from which the IC50 value is determined and the Ki value is determined based upon the following equation: […]
where L is the concentration of the radioactive ligand used and KD is the dissociation constant of the ligand for the receptor, both expressed in nM.

T1 sequence (P50406 whole entry): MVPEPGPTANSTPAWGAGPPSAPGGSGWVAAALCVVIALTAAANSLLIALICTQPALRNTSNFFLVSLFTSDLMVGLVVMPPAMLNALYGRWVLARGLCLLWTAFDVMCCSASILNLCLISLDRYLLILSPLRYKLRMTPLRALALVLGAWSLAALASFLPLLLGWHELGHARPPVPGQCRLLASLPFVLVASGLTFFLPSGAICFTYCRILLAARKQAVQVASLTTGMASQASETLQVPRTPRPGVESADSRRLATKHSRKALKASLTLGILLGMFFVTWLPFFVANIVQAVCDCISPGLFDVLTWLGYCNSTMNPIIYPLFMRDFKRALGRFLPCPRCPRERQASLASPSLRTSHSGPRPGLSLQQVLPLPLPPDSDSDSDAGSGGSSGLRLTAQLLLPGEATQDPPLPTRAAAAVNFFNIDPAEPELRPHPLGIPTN

pKi | Structure (SMILES)
7.80 | Cc1ccc(S(=O)(=O)Nc2ccc3c(c2)OC(CN[C@H](C)c2ccccc2)CC3)cc1 (stereo partly drawn) [Example 37, 4-methyl-N-[2-({[(1R)-1-phenylethyl]amino}methyl)-3,4-dihydro-2H-chromen-7-yl]benzenesulfonamide]
8.30 | C[C@@H](NCC1CCc2ccc(NS(=O)(=O)c3ccc(Cl)cc3)cc2O1)c1ccccc1 (stereo partly drawn) [Example 38, 4-chloro-N-[2-({[(1R)-1-phenylethyl]amino}methyl)-3,4-dihydro-2H-chromen-7-yl]benzenesulfonamide]
8.00 | COc1ccc(S(=O)(=O)Nc2ccc3c(c2)OC(CN[C@H](C)c2ccccc2)CC3)cc1 (stereo partly drawn) [Example 39, 4-methoxy-N-[2-({[(1R)-1-phenylethyl]amino}methyl)-3,4-dihydro-2H-chromen-7-yl]benzenesulfonamide]
7.96 | C[C@@H](NCC1CCc2ccc(NS(=O)(=O)c3ccc(OC(F)(F)F)cc3)cc2O1)c1ccccc1 (stereo partly drawn) [Example 40, N-[2-({[(1R)-1-phenylethyl]amino}methyl)-3,4-dihydro-2H-chromen-7-yl]-4-(trifluoromethoxy)benzenesulfonamide]
8.40 | C[C@@H](NCC1CCc2ccc(NS(=O)(=O)c3cccc4ccccc34)cc2O1)c1ccccc1 (stereo partly drawn) [Example 41, N-[2-({[(1R)-1-phenylethyl]amino}methyl)-3,4-dihydro-2H-chromen-7-yl]naphthalene-1-sulfonamide]
8.70 | C[C@@H](NCC1CCc2ccc(NS(=O)(=O)c3ccc(Cl)s3)cc2O1)c1ccccc1 (stereo partly drawn) [Example 42, 5-chloro-N-[2-({[(1R)-1-phenylethyl]amino}methyl)-3,4-dihydro-2H-chromen-7-yl]thiophene-2-sulfonamide]
8.22 | C[C@@H](NCC1CCc2ccc(NS(=O)(=O)c3ccc(C(F)(F)F)cc3)cc2O1)c1ccccc1 (stereo partly drawn) [Example 43, N-[2-({[(1R)-1-phenylethyl]amino}methyl)-3,4-dihydro-2H-chromen-7-yl]-4-(trifluoromethyl)benzenesulfonamide]
9.00 | C[C@@H](NCC1CCc2ccc(NS(=O)(=O)c3ccc(N)cc3)cc2O1)c1ccccc1 (stereo partly drawn) [Example 44, 4-amino-N-[2-({[(1R)-1-phenylethyl]amino}methyl)-3,4-dihydro-2H-chromen-7-yl]benzenesulfonamide]
9.00 | C[C@@H](NC[C@H]1CCc2ccc(NS(=O)(=O)c3ccccc3)cc2O1)c1ccccc1 [Example 45A]
7.77 | C[C@@H](NC[C@@H]1CCc2ccc(NS(=O)(=O)c3ccccc3)cc2O1)c1ccccc1 [Example 45B, N[(2S)-2-({[(1R)-1-Phenylethyl]amino}methyl)-3,4-dihydro-2H-chromen-7-yl]phenylsulfonamide]
7.43 | C[C@@H](NC[C@H]1CCc2ccc(NS(=O)(=O)c3cccc4ccccc34)cc2O1)c1ccccc1 [Example 46A, N-[(2R)-2-({[(1R)-1-phenylethyl]amino}-methyl)-3,4-dihydro-2H-chromen-7-yl)naphthalene-1-sulfonamide Hydrochloride]
8.70 | C[C@@H](NC[C@@H]1CCc2ccc(NS(=O)(=O)c3cccc4ccccc34)cc2O1)c1ccccc1 [Example 46B, N-[(2S)-2({[(1R)-1-phenylethyl]amino}methyl)-3,4-dihydro-2H-chromen-7-yl]naphthalene-1-sulfonamide Hydrochloride]
7.96 | C[C@@H](NC[C@@H]1CCc2ccc(NS(=O)(=O)c3ccc(N)cc3)cc2O1)c1ccccc1 [Example 47B, 4-Amino-N-[(2S)-2-({[(1R)-1-phenylethyl]amino}methyl)-3,4-dihydro-2H-chromen-7-yl]benezenesulfonamide Hydrochloride]
8.52 | C[C@@H](NCC1CCc2ccc(N(C)S(=O)(=O)c3ccccc3Br)cc2O1)c1ccccc1 (stereo partly drawn) [Example 51, 2-bromo-N-methyl-N-[2-({[(1R)-1-phenylethyl]amino}methyl)-3,4-dihydro-2H-chromen-7-yl]benzenesulfonamide]
8.15 | C[C@@H](NCC1CCc2ccc(N(C)S(=O)(=O)c3ccc(F)cc3)cc2O1)c1ccccc1 (stereo partly drawn) [Example 52, 4-fluoro-N-methyl-N-[2-({[(1R)-1-phenylethyl]amino}methyl)-3,4-dihydro-2H-chromen-7-yl]benzenesulfonamide]
8.30 | C[C@@H](NCC1CCc2ccc(N(C)S(=O)(=O)c3ccc(Cl)cc3)cc2O1)c1ccccc1 (stereo partly drawn) [Example 53, 4-chloro-N-methyl-N-[2-({[(1R)-1-phenylethyl]amino}methyl)-3,4-dihydro-2H-chromen-7-yl]benzenesulfonamide]
7.96 | COc1ccc(S(=O)(=O)N(C)c2ccc3c(c2)OC(CN[C@H](C)c2ccccc2)CC3)cc1OC (stereo partly drawn) [Example 54, 3,4-dimethoxy-N-methyl-N-[2-({[(1R)-1-phenylethyl]amino}methyl)-3,4-dihydro-2H-chromen-7-yl]benzenesulfonamide]
8.40 | C[C@@H](NCC1CCc2ccc(N(C)S(=O)(=O)c3cccc4ccccc34)cc2O1)c1ccccc1 (stereo partly drawn) [Example 55, N-methyl-N-[2-({[(1R)-1-phenylethyl]amino}methyl)-3,4-dihydro-2H-chromen-7-yl]naphthalene-1-sulfonamide]
8.40 | C[C@@H](NCC1CCc2ccc(N(C)S(=O)(=O)c3ccc(N)cc3)cc2O1)c1ccccc1 (stereo partly drawn) [Example 56, 4-amino-N-methyl-N-[2-({[(1R)-1-phenylethyl]amino}methyl)-3,4-dihydro-2H-chromen-7-yl]benzenesulfonamide]
